Laboratory results taken from US6488564B1, “Brassiere protecting against eletrostatic field induced tissue degradation” (priority 1999, dated 2002).

How the values were obtained:
[1] = system: murine mammary 16/C adenocarcinoma; test: Example A: tumor regression by ADM with or without electrostatic field exposure in tumor-bearing mice; assay type: in vivo, B6C3F1 mouse
Excerpt: The inventor's research protocol used the B6C3F1 mouse strain. […] For the inventor's studies, female mice were implanted with murine mammary 16/C adenocarcinoma, a commonly used tumor for cancer research. […] Approximately equal-sized tumor fragments were implanted in each mouse's axillary region through a puncture in the inguinal region. All test animals were approximately six weeks old, with a body weight of 17 to 20 grams at the time of implant. Also, food and water were provided ad libitum throughout each study, and all Groups were exposed to the same temperature and light conditions (lights on 12 hours and off 12 hours each day). The studies were blinded in both the assignment of the animals to the study groups, and in all tumor measurements.
In the first study noted here, four groups of 11 tumor bearing animal each were used. […] All of the animals were treated with 12 mg/kg ADM on day 4, and housed in cages containing an insulated metal screen suspended 25.4-mm above the animals.
GA: Control, treated with ADM and no electrostatic field exposure. The screen above animals was not charged.
GB: The screen was charged, and changed from positive to negative 15 kV DC once each 15 minutes.
GC: The screen was charged 15 kV DC, and changed from positive to negative once each 15 minutes. The animals were on a grounded wire grid cage floor (115 mm between the screen and floor).
GD: The screen was charged, and changed from positive to negative 15 kV once each 15 minutes. There was no ground plane nearby.

B6C3F1 mouse = test: Example B: animal deaths after ADM with or without electrostatic field exposure in tumor-bearing mice; assay type: in vivo; set-up: key to animal death: “X” indicates an animal death
Excerpt: Before methods for practicing the present invention are discussed, it will be helpful to note the results of examples of the inventor's studies with animals exposed to electrostatic fields, and to electrostatic fields and chemicals in combination. The total scope of the inventor's studies regarding electrostatic field influence inside a living body has involved over 350 tumor bearing rodents, however for the sake of brevity only four such studies will be noted here. The inventor's research protocol used the B6C3F1 mouse strain. This mouse is recognized by the National Cancer Institute as one Standard for chemotherapy research, and is one of the commonly accepted rodent species used in cancer studies. For the inventor's studies, female mice were implanted with murine mammary 16/C adenocarcinoma, a commonly used tumor for cancer research. The 16/C murine mammary tumor is particularly aggressive, and can normally grow from a barely visible, or even invisible, bump under the skin the day after the implant, to 10 to 20 percent of the animal's total body weight by day 14 (tumor size typically up to 4 grams). Approximately equal-sized tumor fragments were implanted in each mouse's axillary region through a puncture in the inguinal region. All test animals were approximately six weeks old, with a body weight of 17 to 20 grams at the time of implant. Also, food and water were provided ad libitum throughout each study, and all Groups were exposed to the same temperature and light conditions (lights on 12 hours and off 12 hours each day). The studies were blinded in both the assignment of the animals to the study groups, and in all tumor measurements.
After the tumors were allow to establish and grow for several days, the mice were treated with adriamycin (ADM), a commonly used chemotherapeutic agent, at dose levels based on their individual weight and known to be safe. Following this, the animals were blindly divided into the study groups. The growth rate of the tumors in a Control Group, without exposure to electrostatic fields, was compared to that of Test Groups that were under the influence of an electrostatic field. Tumor measurements were made by caliper using the prolate ellipsoid formula of the National Cancer Institute to convert the measurements into weight. This method allowed the tumor weight of each animal to be tracked throughout the study.
The mice in each Test Group were subjected to electrostatic fields with the use of special cages. When the application of electrostatic fields was required, special equipment was used to expose the desired animal groups to an electrostatic field with an intensity of approximately 79,000 V/m from a charged element insulated from the animals.
This study used three groups of 11 tumor-bearing animals each. There was not a statistical difference in the size of the animal tumors at the start of the study. All of the animals were treated twice with 8 mg/kg ADM given on days 3 and 5 (16 mg/kg total). In addition, Groups B&C were exposed to an electrostatic field for 4 hours following each injection.
GA: Control, treated with ADM and no electrostatic field exposure.
GB: ADM plus exposure to a negative 15 kV DC charged screen 25.4 mm above, with a grounded grid below, the animals (90 mm between screen and grid).
GC: ADM plus exposure to 15 minute cycles of positive then negative 15 kV DC on a screen 25.4 mm above, with a grounded grid below, the animals (90 mm between screen and grid).
In this study the inventor inadvertently allowed the applied electrostatic fields in Groups B and C to increase the affect of the ADM to a lethal level. […] The electrostatic fields Groups B and C were exposed to increased the reaction of body cells to the ADM, creating the effect of a lethal overdose. […]

## COc1cccc2c1C(=O)c1c(O)c3c(c(O)c1C2=O)C[C@@](O)(C(=O)CO)C[C@@H]3O[C@H]1C[C@H](N)[C@H](O)[C@H](C)O1 [ADM, adriamycin]
[1]; GA: 12 mg/kg ADM on day 4, no electrostatic field exposure (screen not charged)
  tumor wt. loss: −24%
[1]; GB: 12 mg/kg ADM on day 4 plus screen changed positive to negative 15 kV DC each 15 minutes, grounded wire grid below cage
  tumor wt. loss: −86%
[1]; GC: 12 mg/kg ADM on day 4 plus screen 15 kV DC changed positive to negative each 15 minutes, animals on grounded wire grid cage floor
  tumor wt. loss: −80%
[1]; GD: 12 mg/kg ADM on day 4 plus screen changed positive to negative 15 kV each 15 minutes, no ground plane nearby
  tumor wt. loss: −75%
B6C3F1 mouse; GA: 8 mg/kg ADM days 3 and 5, without exposure to a static field
  ill affect: no ill affect until day 30
B6C3F1 mouse; Group A: 8 mg/kg ADM days 3 and 5, no field, day 30 (death from tumor, not ADM)
  animal death: X
B6C3F1 mouse; Group B: 8 mg/kg ADM days 3 and 5 plus negative 15 kV DC field 4 hours after each injection, day 12
  animal death: XXX
B6C3F1 mouse; Group B: 8 mg/kg ADM days 3 and 5 plus negative 15 kV DC field 4 hours after each injection, day 18
  animal death: X
B6C3F1 mouse; Group B: 8 mg/kg ADM days 3 and 5 plus negative 15 kV DC field 4 hours after each injection, day 19
  animal death: X
B6C3F1 mouse; Group B: 8 mg/kg ADM days 3 and 5 plus negative 15 kV DC field 4 hours after each injection, day 22
  animal death: X
B6C3F1 mouse; Group B: 8 mg/kg ADM days 3 and 5 plus negative 15 kV DC field 4 hours after each injection, day 28
  animal death: X
B6C3F1 mouse; Group C: 8 mg/kg ADM days 3 and 5 plus 15 minute cycles of positive then negative 15 kV DC field 4 hours after each injection, day 11
  animal death: X
B6C3F1 mouse; Group C: 8 mg/kg ADM days 3 and 5 plus 15 minute cycles of positive then negative 15 kV DC field 4 hours after each injection, day 12
  animal death: XXXXX
B6C3F1 mouse; Groups B and C: 8 mg/kg ADM days 3 and 5 plus electrostatic field
  necropsy of the dead animals: obvious heart enlargement
